# In patent US11192888B2, “Antibacterial compounds” (priority 2017, dated 2021):
# Where “and” joins values, the source holds several entries; their conditions need not be identical. Identical values can stand only once. *1 amine or outer side, *2 acyl side, *3 side chain or, on linkers, in order; H or OH if unused. Where a SMILES comes first, the peptide text is derived from it. [ ]: non-standard residue; d: D form. dAla(ψthiazole) = C[C@@H](N[*:1])c1nc(C(=O)[*:2])cs1; Trp(4-Br) = N[C@@H](Cc1c[nH]c2cccc(Br)c12)C(=O)O; Dhb = C/C=C(\N)C(=O)O; Sar = CNCC(=O)O
# Legend:
# [1] = tested on: Bifidobacterium bifidum ATCC 11863
# [2] = tested on: C. difficile BI1 (BI/NAP1, ribotype 027); test: Hamster model of C. difficile-associated disease; format: in vivo, Golden Syrian hamsters
# [3] = tested on: Corynebacterium jeikeium NCTC 11914
smiles,measurement,setting,value
"C/C=C1\NC(=O)[C@@H](C)NC(=O)CNC(=O)[C@H](Cc2c[nH]c3cccc(Br)c23)NC(=O)[C@H](Cc2c[nH]c3ccccc23)NC(=O)c2csc(n2)[C@@H](C)NC(=O)CN(C)C1=O [Compound 10, Cyclo[D-Ala-Thz-Trp-Trp(4-Br)-Gly-D-Ala-Dhb-Sar]] (cyclo([Dhb][Sar][dAla(ψthiazole)]W[Trp(4-Br)]G[dA]))",MIC,[1],>64 µg/mL
same,hamsters that succumbed to the disease within 36 hours post-infection,[2]; 0.2 mg/kg,100%
same,Mean survival,[2]; 0.2 mg/kg oral twice daily for 5 days,35.75 h
same,animals reaching the end of the study at day-21 post-infection,[2]; 1.0 mg/kg and 2.5 mg/kg twice daily,10%
same,Mean survival,[2]; 1.0 mg/kg oral twice daily for 5 days,155 h and 154.63 h
same,average survival,[2]; 1.0 mg/kg twice daily,6.5 days
same,increase in survival time compared to vehicle control,[2]; 1.0 mg/kg twice daily,4.7 fold
same,Mean survival,[2]; 2.5 mg/kg oral twice daily for 5 days,206 h and 205.92 h
same,average survival,[2]; 2.5 mg/kg twice daily,8.5 days
same,increase in survival time compared to vehicle control,[2]; 2.5 mg/kg twice daily,6.3 fold
same,survival at day 6 post-infection,[2]; 2.5 mg/kg twice daily,100%
same,survival time compared to the vehicle control,"[2]; 0.2, 1.0 and 2.5 mg/kg, non-optimised doses",significant dose dependent increase in survival time
same,MIC,[3],>64 µg/mL
